# pEC50, pIC50: −log10 of the molar value. Several values for one entry are separate records, joined by “and”; a condition that tells them apart may be missing. Identical values can stand only once. Like-named read-outs stand apart in the source and are kept apart here.
# Columns and labels:
# recombinant HsPheRS = target: T1, recombinant HsPheRS (Homo sapiens, UniProt Q9Y285); test: Malachite green aminoacylation enzyme assay, HsPheRS; settings: for Hu PheRS enzyme assay raw signal: replicates
# T1 sequence (Q9Y285 1-508): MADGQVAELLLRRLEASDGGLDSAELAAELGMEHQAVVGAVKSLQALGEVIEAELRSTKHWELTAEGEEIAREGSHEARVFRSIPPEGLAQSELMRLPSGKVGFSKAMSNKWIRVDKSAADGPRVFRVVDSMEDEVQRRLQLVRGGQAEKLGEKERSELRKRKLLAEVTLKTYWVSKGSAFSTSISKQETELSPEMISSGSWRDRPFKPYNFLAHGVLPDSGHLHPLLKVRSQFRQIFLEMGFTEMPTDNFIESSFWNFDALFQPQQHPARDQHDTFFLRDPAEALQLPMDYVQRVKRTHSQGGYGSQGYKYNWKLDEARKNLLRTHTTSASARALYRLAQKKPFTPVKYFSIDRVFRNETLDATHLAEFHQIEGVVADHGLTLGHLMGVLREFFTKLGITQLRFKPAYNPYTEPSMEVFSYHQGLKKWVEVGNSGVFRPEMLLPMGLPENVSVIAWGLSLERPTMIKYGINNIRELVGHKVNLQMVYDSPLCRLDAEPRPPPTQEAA
# T1 sequence (Q9NSD9 1-589 partner): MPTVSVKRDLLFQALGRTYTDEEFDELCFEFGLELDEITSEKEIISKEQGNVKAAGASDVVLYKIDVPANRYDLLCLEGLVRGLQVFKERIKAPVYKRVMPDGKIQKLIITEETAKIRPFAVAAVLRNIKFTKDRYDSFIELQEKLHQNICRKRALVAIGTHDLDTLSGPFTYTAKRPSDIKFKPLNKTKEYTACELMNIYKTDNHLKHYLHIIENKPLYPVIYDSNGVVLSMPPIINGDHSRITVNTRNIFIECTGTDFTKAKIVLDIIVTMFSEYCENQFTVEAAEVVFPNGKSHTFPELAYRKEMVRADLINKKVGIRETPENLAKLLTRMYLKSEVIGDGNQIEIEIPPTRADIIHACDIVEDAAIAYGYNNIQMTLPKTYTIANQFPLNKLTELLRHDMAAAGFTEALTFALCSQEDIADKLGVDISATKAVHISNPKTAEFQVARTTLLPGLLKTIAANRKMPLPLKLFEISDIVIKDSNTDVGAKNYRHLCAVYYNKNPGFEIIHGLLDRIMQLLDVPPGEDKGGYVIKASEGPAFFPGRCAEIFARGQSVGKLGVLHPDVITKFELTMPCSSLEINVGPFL
# [1] = system: T. gondii RHΔΔ TgPheRS[M484I]; test: Tachyzoite lytic assay, M484I mutant; assay type: cell-based; settings: Toxoplasma gondii
# Description: (§1) In vitro cultures of HFF cells containing mature vacuoles were scraped, passaged through 23 g blunt end needles, and filtered using 3 micron filters. Purified parasites were resuspended in 350 μL of cytomix plus[49] and combined in a BTX 4 mm gap cuvette with 30 μL of PCR amplified templates corresponding to mutations of interest and 10 μg of pSAG1:Cas9-GFP U6:sgTgPheRS^[mut] (in 20 μL, 400 μL total volume, see Supplementary Data 1 for sgRNA sequences) prior to electroporation using a BTX ETM 830 electroporator. Amplified templates for TgPheRS mutations were generated from gBlocks (Integrated DNA Technologies, Coralville, IA, USA) that contain a BclI restriction site that replaces the PAM sequence to protect the repair template from being cut by Cas9. […]
# (§2) Parasite growth on HFF monolayers was monitored using a 96-well plate-based lytic assay modified from a previously described protocol. […] Plates were rinsed with water, air dried, and absorption quantified on the Cytation 3 multi-mode imager at 570 nm wavelength. % parasite growth was calculated as 100−[(OD value for infected cultures at each concentration of compound/average OD value for no compound and no parasite infection) × 100]. EC50 values were calculated based on the mean of three biological replicates with each replicate containing two technical replicates.
# [2] = system: T. gondii RHΔΔ TgPheRS[M484I] [V262A] double mutant; test: Tachyzoite lytic assay, M484I_V262A double mutant; assay type: cell-based, Toxoplasma gondii; settings: for pEC50: Toxoplasma gondii
# Description: as §1, with “Cas9. At 16 h post-transfection, transgenic parasites expressing pSAG1:Cas9-GFP were sorted on a Sony SH800 FACS sorter directly into 96-well plates. Single clones containing TgPheRS^[mut] were identified by amplifying a ~500 bp PCR fragment around introduced mutation followed by digestion using BclI (New England Biolabs) BclI sensitive clones were expanded and the locus was Sanger sequenced to verify incorporation of each independent mutation. To generate firefly luciferase (FLuc) expressing strains, freshly harvested parasites were combined with 20 μg of pTUB-FLUC DHFR flox plasmid and 10 μg of pSAG1:Cas9-GFP U6:sgUPRT[50] (in 50 μL cytomix plus) and transformed by electroporation as described above.” for “Cas9.”
# as §2
# [3] = mouse; cited from earlier work
# [4] = system: T. gondii RHΔhxgprtΔku80 (RHΔΔ); test: Tachyzoite lytic assay, wild-type parent; assay type: cell-based, Toxoplasma gondii; settings: for % Parasite Growth: RHΔΔ; for pEC50: Toxoplasma gondii
# Description: Parasite growth on HFF monolayers was monitored using a 96-well plate-based lytic assay modified from a previously described protocol. […]. Freshly harvested parasites (7.5 × 10^4 /well) were added to each well (in 100uL volume) to reach the final concentration range (10 μM to 0.0005 μM, 200 μL/well, 0.1% DMSO). Plates were incubated for 72 h at 37 °C then culture medium was aspirated and monolayers were fixed with 100% ethanol (ETOH) for 5 min at room temperature (RT). After rinsing with water, wells were stained with 0.1% crystal violet solution for 10 min at RT. Plates were rinsed with water, air dried, and absorption quantified on the Cytation 3 multi-mode imager at 570 nm wavelength. % parasite growth was calculated as 100−[(OD value for infected cultures at each concentration of compound/average OD value for no compound and no parasite infection) × 100]. EC50 values were calculated based on the mean of three biological replicates with each replicate containing two technical replicates.
# C. parvum = C. parvum mouse model; cited from earlier work
smiles,measurement,setting,value
COc1ccc(NC(=O)N2CCCCN3[C@H](CN(C)C)[C@H](c4ccc(C#Cc5ccccc5)cc4)[C@@H]3C2)cc1 [BRD7929],pIC50,recombinant HsPheRS,4.65
same,Hu PheRS enzyme assay raw signal,recombinant HsPheRS; BRD7929 0.000001 μM,0.7213 and 0.8235 and 0.7680
same,Hu PheRS enzyme assay raw signal,recombinant HsPheRS; BRD7929 0.000010 μM,0.6210 and 0.7246 and 0.7585
same,Hu PheRS enzyme assay raw signal,recombinant HsPheRS; BRD7929 0.000100 μM,0.6366 and 0.8166 and 0.8094
same,Hu PheRS enzyme assay raw signal,recombinant HsPheRS; BRD7929 0.001000 μM,0.7178 and 0.7568 and 0.6293
same,Hu PheRS enzyme assay raw signal,recombinant HsPheRS; BRD7929 0.010000 μM,0.4951 and 0.5827 and 0.6166
same,Hu PheRS enzyme assay raw signal,recombinant HsPheRS; BRD7929 0.100000 μM,0.5035 and 0.5467 and 0.5776
same,Hu PheRS enzyme assay raw signal,recombinant HsPheRS; BRD7929 1.000000 μM,0.4827 and 0.4553 and 0.5046
same,Hu PheRS enzyme assay raw signal,recombinant HsPheRS; BRD7929 10.000000 μM,0.4350 and 0.4477 and 0.4390
same,Hu PheRS enzyme assay raw signal,recombinant HsPheRS; BRD7929 100.000000 μM,0.4107 and 0.4228 and 0.4405
same,pEC50,"[1]; 72 h, read-out: EC50, M484I",7.03
same,pEC50,[1]; read-out: EC50 (growth restriction),7.19
same,"shift of EC50, double mutant",[2]; M484I and V262A double mutant,only shifted the EC50 slightly more than every single mutation
same,pEC50,"[2]; 72 h, read-out: EC50, M484I_V262A",6.58
same,pEC50,"[2]; Table S4, V262A-M484I, read-out: EC50 (growth restriction)",6.63
same,oral bioavailability,[3],80%
same,% Parasite Growth,"[4]; 3.33333333 uM, replicate wells",-62.34% and -8.91% and -41.4% and -6.78% and -65.46% and -56.23% and -31.38% and -99.25% and -132.9% and -155.42% and -68.19% and -11.78%
same,% Parasite Growth,[4]; 0.00152416 uM,68.94% and 89.11% and 79.46% and 70.31% and 60.77%
same,% Parasite Growth,[4]; 0.00457247 uM,84.64% and 87.57% and 82.22% and 46.33% and 48.4%
same,% Parasite Growth,[4]; 0.01371742 uM,76.37% and 86.87% and 80.22% and 58.24% and 60.43%
same,pEC50,"[4]; 72 h, read-out: EC50, RHΔΔ",7.09
same,pEC50,"[4]; read-out: EC50, RHΔΔ",7.28
same,pEC50,"[4]; Table S4, Wild type, read-out: EC50 (growth restriction)",7.44
COc1ccc(NC(=O)N2CCCCN3[C@H](CO)[C@H](c4ccc(C#Cc5ccccc5)cc4)[C@@H]3C2)cc1 [BRD3444],reduction of oocyst shedding,C. parvum,96%

# Reference: article PMC8786932, “Bicyclic azetidines target acute and chronic stages of Toxoplasma gondii by inhibiting parasite phenylalanyl t-RNA synthetase” (Nature Communications, 2022)
